From patent US7166472B2, “Method for the identification of agents that inhibit or promote cataracts and uses thereof” (The General Hospital Corporation, priority 2000, dated 2007)
Each block holds one molecule with its values, some of them ahead of it.

Legend:
[1] = Hydrogen peroxide assay (DCF fluorometric); type: biochemical; conditions: for hydrogen peroxide generated: ambient gas conditions, CHELEX-treated PBS, FIG. 4C
Description: Hydrogen Peroxide Assay—The fluorometric assay for hydrogen peroxide is based on the dichlorofluorescein diacetate (DCF) method (Molecular Probes, Eugene, Oreg.). The DCF solution (5 mM) in 100% ethanol was deacetylated in the presence of 0.01 M NaOH for 30 minutes and neutralized. Horseradish peroxidase (200 U/ml) was then added and the DCF concentration adjusted to 200 μM in PBS. The reaction solutions were carried out in PBS, pH 7.4, in a 96-well format plate (total volume=300 μL/well) and contained a test compound (KYN, 3-HK, 3-HAA, ANA, or ASC, each at 10 μM), deacetylated DCF (20 μM), and Cu(II)-glycine (1 μM) as indicated, incubated at 37° C. for 60 minutes. […] Abolition of the reading by co-incubation with catalase (1000 U/ml) was used for establishing H2O2 specificity. The fluorescent readings were recorded by a Packard FLURORCOUNT™ fluorescent plate reader with a 485 nm excitation filter and 530 nm emission filter. Concentrations were determined by comparison to a standard curve using reagent grade hydrogen peroxide in CHELEX™ chelating ion exchanae resin-treated PBS buffer, pH 7.4.
Reactions were conducted in the absence of added Cu(II), in the presence of added glycine-complexed Cu(II) (1 μM), in the presence of added glycine-complexed Cu(II) (1 μM) and catalase (1000 U/ml), or with added glycine-complexed Cu(II) (1 μM) and the copper chelator triethylenetetramine (TETA, 200 μM).

[2] = Cyclic voltammetry of kynurenine metabolites with Cu(II); type: physicochemical; conditions: metabolite 100 μM, cupric chloride 25 μM, PBS pH 7.4
Description: Cyclic Voltammetry—Cyclic voltammetry was performed at room temperature (22±2° C.) on ambient solutions using an EG&G PAR potentiostat, Model 273. The potentiostat was operated in Ramp Mode, generating a potential staircase waveform with a 0.25 mV step height. The potential window of +0.15 to −0.4V, in which Cu(I) is electroactive, but the metabolites are not, was scanned in both directions at a rate of 100 mV/sec. The current response was passed through a 5.3 Hz low pass filter. A minimum of three cycles were collected for each scan, ensuring the stability of the electrochemical response. The electrochemical cell consisted of an indium/tin oxide working electrode (Delta Technologies) with an active area of 0.32 cm^2, a platinum wire auxiliary electrode, and a Ag/AgCl (1 M KCl) reference electrode (Microelectrodes Inc.). Both the auxiliary and reference electrodes were positioned in the cell in close proximity to the working electrode. The working electrodes were pretreated with successive 10 minute sonications in Alconox (˜8 g/L), 95% ethanol, Milli-Q purified H2O (2×), and PBS (pH 7.4), followed by an overnight soak in PBS (pH 7.4). The ITO electrodes were subsequently “activated” immediately prior to use by successive cycling in PBS for three cycles in each of the following potential windows: +0.15 ? −0.4 V, +0.4 ? −0.4 V, and +1.0 ? −0.4 V. Cupric chloride (25 μM; Allied Chemical) was used as the Cu(II) source. Background voltammograms were obtained on each new electrode before testing the kynurenine pathway metabolites. PBS solutions of KYN, 3-HK, ANA, and 3-HAA (each at 100 μM) were separately scanned with and without added Cu(II) (25 μM). Each experiment also included a scan of Cu(II) (25 μM) in PBS without added test compound. All solutions were tested within minutes of being prepared. Each test was repeated to ensure the reproducibility of the results.
The voltammograms in FIGS. 3A–3D compare 3-HK and 3-HAA to their corresponding non-phenolic analogs, kynurenine (KYN) and anthranilic acid (ANA), in aqueous solutions of Cu(II) at pH 7.4. […] At potentials above +0.15 V, the metabolites undergo direct irreversible oxidation, a reaction that is not considered further here. Cyclic voltammetry of Cu(II) in PBS yielded a current response at ≈−100 mV due to reduction of the metal ion (scan “b” in each panel).

[3] = Superoxide assay (dihydroethidium fluorometric); type: biochemical; conditions: for effect of Cu(II) on superoxide generation / superoxide production: test compound 10 μM; for effect of Cu(II) on superoxide generation: Cu(II)-glycine 1 μM; for superoxide production: ambient oxygen, dark, 60 minutes
Description: Superoxide Assay—The fluorometric assay for superoxide is based upon the dihydroethidium (DHE, HYDROETHDNE™) method (Molecular Probes, Eugene, Oreg.) and used according to the manufacturer's instructions. DHE (1 mM) was freshly prepared in 100% argon-sparged DMSO. The reaction solutions were carried out in PBS, pH 7.4, under ambient gas conditions, in 96-well format plates and contained a test compound (KYN, 3-HK, 3-HAA, and ANA, each at 10 μM), DHE (100 μM), +/− Cu(II)-glycine (1 μM) and incubated at 37EC for 60 minutes. […] Abolition of the reading by co-incubation with superoxide dismutase (1000 U/ml) was used for establishing superoxide specificity. The fluorescent readings were recorded by a Packard FLUOROCOUNT™ fluorescent plate reader with a 510 nm excitation filter and 590 nm emission filter. Potassium superoxide dissolved in degassed DMSO was used as a positive control.

[4] = target: T1, recombinant human αB-crystallin (Homo sapiens, UniProt P02511); test: Recombinant human αB-crystallin cross-linking (SDS-PAGE, silver stain); type: biochemical; conditions: data not shown
T1 construct: gift of Dr. J. Liang, Brigham and Women's Hospital
T1 sequence (P02511 1-175): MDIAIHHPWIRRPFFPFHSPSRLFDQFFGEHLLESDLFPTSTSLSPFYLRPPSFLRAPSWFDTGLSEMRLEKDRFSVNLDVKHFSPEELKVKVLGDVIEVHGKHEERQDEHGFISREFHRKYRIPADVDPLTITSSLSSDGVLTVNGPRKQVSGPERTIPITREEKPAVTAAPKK
Description: Various solutions containing 3-HK (10 μM) or other kynurenine pathway metabolites (10 μM), Cu(II)-glycine (10 μM), Fe(III)-citrate (10 μM), and triethylenetetramine (TETA, 200 μM), were added in combinations as indicated. […] After incubation, aliquots of the total lens protein solutions were mixed with sample buffer containing 4% SDS and 5% β-mercaptoethanol, heated to 95° C. for 5 minutes, and loaded at 1 μg/lane on a 10–20% Tricine gel (Novex, San Diego, Calif.). […] For the experiments with recombinant αB-crystallin, aliquots of the protein solutions were mixed with sample running buffer containing NuPAGE sample buffer (Novex, San Diego, Calif.) and 10% β-mercaptoethanol, heated to 95° C. for 5 minutes, spun briefly, then loaded on a NuPAGE 4–12% Bis-Tris polyacrylamide gel at 375 ng/lane and electrophoresed with denaturing 3-(N-morpholino)propanesulfonic acid (MOPS)-SDS running buffer according to the manufacturer's recommendations.
To exclude the effects of other lens proteins on the observed findings in FIG. 5, these interactions with purified recombinant human αB-crystallin were examined.

[5] = Metal reduction assay, Cu(II) to Cu(I) (BC/BCA indicator); type: biochemical; conditions: chelator 250 μM
Description: Metal Reduction Assays—Assays were performed using a 96-well microtiter plate (Costar, Mass.). Test compounds from the kynurenine pathway (10 μM) or, as a positive control, ascorbic acid (ASC, 10 μM) were co-incubated with either Fe(III)-citrate (25 μM) and the Fe(II) indicator bathophenanthroline disulfonic acid (BP, 250 μM), or Cu(II)-glycine (25 μM) and the Cu(I) indicator bathocuproine disulfonic acid (BC) or bicinchoninic acid (BCA, 250 μM). Incubations were conducted in PBS, pH 7.4, at 37° C. in the dark for one hour. Absorbencies were then measured using a plate reader (SPECTRAmax Plus, Molecular Devices, CA) at the appropriate wavelengths: Fe(II)-BP complex at 535 nm (the known molar absorption coefficient, M535,=22140 M^−1 cm^−1), Cu(I)-BC complex at 483 nm, M483=12250 M^−1cm^−1), or Cu(I)-BCA complex at 562 nm, M562=7700 M^−1cm^−1). In control samples, absorbance from the metal ion and indicator in the absence of test compound and the absorbance of test compound in the presence of metal ions, but in the absence of indicator, were determined. The absorbencies from these controls were deducted from those obtained in the presence of the test compound, metal and indicator to yield the net absorbance (ΔA). Fe(II) or Cu(I) concentrations (μM) were calculated according to the formula: C(μM)=ΔA*10^6/Mλ.
The compounds comprising the kynurenine pathway (FIG. 1) were assayed for their ability to reduce […] and Cu(II) (FIG. 2A). […] Values represent the mean±SD for three independent measurements.

α-crystallin = target: T2, α-crystallin (Bos taurus, UniProt P02470+P02510); test: α-Crystallin modification under longwave ultraviolet illumination; type: biochemical; conditions: exposure of α-crystallin in the presence of longwave ultraviolet illumination
T2 sequence (P02470 1-173): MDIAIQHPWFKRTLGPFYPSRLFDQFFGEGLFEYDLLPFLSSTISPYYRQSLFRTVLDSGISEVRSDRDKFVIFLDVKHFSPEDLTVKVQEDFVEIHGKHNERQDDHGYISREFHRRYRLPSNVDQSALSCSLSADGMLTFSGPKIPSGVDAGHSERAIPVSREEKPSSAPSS
T2 sequence (P02510 1-175): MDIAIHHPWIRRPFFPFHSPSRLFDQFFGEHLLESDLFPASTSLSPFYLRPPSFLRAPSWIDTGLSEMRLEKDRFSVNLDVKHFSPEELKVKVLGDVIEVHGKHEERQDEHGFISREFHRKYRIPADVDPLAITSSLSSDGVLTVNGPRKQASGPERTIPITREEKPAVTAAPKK

αB-crystallin = target: T3, αB-crystallin (Bos taurus, UniProt P02510); test: αB-crystallin cross-linking in total calf lens protein (Western blot); conditions: metabolite 10 μM, no added Cu(II), five days 37° C. dark
T3 sequence (P02510 1-175): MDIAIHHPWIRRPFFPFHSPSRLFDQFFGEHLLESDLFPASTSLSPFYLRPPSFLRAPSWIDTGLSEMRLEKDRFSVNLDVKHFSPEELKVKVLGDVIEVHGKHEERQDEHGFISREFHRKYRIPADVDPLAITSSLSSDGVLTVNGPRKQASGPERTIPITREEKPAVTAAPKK

[6] = Metal reduction capacity of tanned calf lens α-crystallin, Cu(II); type: biochemical; conditions: α-crystallin preparation 100 μg/ml, Cu(II)-glycine 25 μM, one hour 37° C.
Description: Studies of Tanned Calf Lens Crystalin in Assay of Crystallin Protein for Metal Reduction Capacity—α-Crystallin (10 mg/ml) from calf lens was modified by reaction with 3-HK (100 μM), 3-HAA (100 μM), or ASC (100 μM) in PBS, ph 7.4, for 12 hours at 4° C. in the dark. Control samples were incubated with ascorbic acid (100 μM) or without added reductant. The tanning incubation solutions also contained triethylenetetramine (TETA, 200 μM) to prevent cross-linking of the protein. After incubation, free reductant was removed from the tanned α-crystallin preparations by exhaustive dialysis at 4EC in the dark utilizing PBS, pH 7.4, containing CHELEX™ 100 chelating ion exchange resin (BioRad, Hercules, Calif.). The various modified α-crystallin preparations (100 μg/ml) were co-incubated with either Cu(II)-glycine glycine (25 μM) or Fe(III)-citrate (25 μM) for one hour at 37° C. and assayed for metal reduction capacity using the BC and BP spectrophotometric assay as detailed above. Incubated and dialyzed α-crystallin (100 μg/ml) and untreated α-crystallin (100 μg/ml) preparations were used for procedural control.
3-HK: α-crystallin reduced nearly 100% of the available Cu(II) and approximately 20% of the available Fe(III). 3-HAA: α-crystallin reduced approximately 65% of the available Cu(II).

Molecule: Nc1ccccc1C(=O)O [ANA, anthranilic acid]
hydrogen peroxide generated [1]: approx. 0.3 μM | Cu(II) reduction wave in presence of metabolite [2]: largely unaffected | effect of Cu(II) on superoxide generation [3]: did not promote | superoxide production [3]: negligible

inhibition of αB-crystallin cross-linking by 3-HK or 3-HAA and Cu(II) [4]: did not inhibit
Molecule: C[S+](C)[O-] [DMSO, dimethyl sulfoxide]

Molecule: O=C(O)CN(CCN(CC(=O)O)CC(=O)O)CCN(CC(=O)O)CC(=O)O [DTPA, diethylenetriaminepentaacetic acid, reference compound]
effect of chelator on metal reduction by 3-HK, 3-HAA and XA [5]: abolished

capacity of altered α-crystallin to reduce metal and generate hydrogen peroxide (α-crystallin): dramatically enhanced capacity | αB-crystallin cross-linking (αB-crystallin): does not induce
Molecule: Nc1ccccc1C(=O)C[C@H](N)C(=O)O [KYN, L-kynurenine]
hydrogen peroxide generated [1]: approx. 0.3 μM | Cu(II) reduction wave in presence of metabolite [2]: largely unaffected | effect of Cu(II) on superoxide generation [3]: did not promote | superoxide production [3]: negligible

inhibition of αB-crystallin cross-linking by 3-HK or 3-HAA and Cu(II) [4]: did not inhibit
Molecule: OC[C@@H](O)[C@@H](O)[C@H](O)[C@H](O)CO [mannitol]

Molecule: O=C(O)c1ccccc1O [salicylate]
inhibition of αB-crystallin cross-linking by 3-HK or 3-HAA and Cu(II) [4]: did not inhibit

Molecule: catalase [reference compound]
inhibition of αB-crystallin cross-linking by 3-HK or 3-HAA and Cu(II) [4]: neither catalase nor superoxide dismutase were capable of inhibiting | effect on hydrogen peroxide generation by 3-HK or 3-HAA ([1]; Cu(II) 1 μM, catalase 1000 U/ml or TETA 200 μM): abolished

Molecule: superoxide dismutase [reference compound]
inhibition of αB-crystallin cross-linking by 3-HK or 3-HAA and Cu(II) [4]: neither catalase nor superoxide dismutase were capable of inhibiting | effect on superoxide production by 3-HAA ([3]; superoxide dismutase 1000 U/ml): removed

B1: 3-HAA: α-crystallin: calf lens α-crystallin modified (tanned) by reaction with 3-HAA, free metabolite removed by dialysis (protein, UniProt P02470 1-173; P02510 1-175, looked up)
Alpha-crystallin A chain: MDIAIQHPWFKRTLGPFYPSRLFDQFFGEGLFEYDLLPFLSSTISPYYRQSLFRTVLDSGISEVRSDRDKFVIFLDVKHFSPEDLTVKVQEDFVEIHGKHNERQDDHGYISREFHRRYRLPSNVDQSALSCSLSADGMLTFSGPKIPSGVDAGHSERAIPVSREEKPSSAPSS
Alpha-crystallin B chain: MDIAIHHPWIRRPFFPFHSPSRLFDQFFGEHLLESDLFPASTSLSPFYLRPPSFLRAPSWIDTGLSEMRLEKDRFSVNLDVKHFSPEELKVKVLGDVIEVHGKHEERQDEHGFISREFHRKYRIPADVDPLAITSSLSSDGVLTVNGPRKQASGPERTIPITREEKPAVTAAPKK
modifications: modified with 3-hydroxyanthranilic acid
notes: calf lens α-crystallin modified (tanned) by reaction with 3-HAA, free metabolite removed by dialysis
reduction of available Cu(II) [6]: approximately 65%
